Assay results: article PMC7104388 (Journal of medicinal chemistry, 2019)
Values belong to the compound of their own block, whether it stands above or below them.

Assays:
[1] = test system: P. falciparum Dd2; assay: Parasite growth inhibition, parental Dd2; details: Plasmodium falciparum
[2] = PAMPA permeability; type: in vitro ADME; details: pH 7.4
[3] = biological target: T1, Pf20S β5 (Plasmodium falciparum, UniProt A0A5K1K7U1+Q8IJT1)
T1 sequence (Q8IJT1 61-271): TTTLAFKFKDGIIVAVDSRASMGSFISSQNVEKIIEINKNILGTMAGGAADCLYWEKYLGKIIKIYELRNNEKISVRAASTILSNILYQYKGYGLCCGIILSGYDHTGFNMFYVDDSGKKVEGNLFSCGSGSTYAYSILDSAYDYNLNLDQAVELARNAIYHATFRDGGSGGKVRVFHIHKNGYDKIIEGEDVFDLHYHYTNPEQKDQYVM
T1 sequence (A0A5K1K7U1 29-240): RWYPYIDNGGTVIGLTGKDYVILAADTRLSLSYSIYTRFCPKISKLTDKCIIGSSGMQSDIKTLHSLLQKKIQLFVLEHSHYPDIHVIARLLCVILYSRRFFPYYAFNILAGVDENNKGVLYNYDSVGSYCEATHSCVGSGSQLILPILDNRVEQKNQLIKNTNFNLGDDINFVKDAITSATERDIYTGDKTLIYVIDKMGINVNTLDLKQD

[4] = test system: P. falciparum clinical isolates (Uganda); assay: Ex vivo 72-h growth inhibition of P. falciparum field isolates in Uganda; type: cell-based; details: Plasmodium falciparum, read-out: EC50 range against Ugandan isolates
[5] = test system: Pf 3D7; assay: Parasite growth inhibition, erythrocytic stage, SYBR Green 72 h
[6] = biological target: T1, Pf20S β5; assay: Pf20S active subunit labeling by MV151; type: binding, P. falciparum; details: Figure 2B
[7] = test system: wild-type Pf Dd2 parasites; assay: Dual drug assay and isobologram analysis, 72 h; type: cell-based, P. falciparum; details: WHZ-04 in combination with WLW-VS
[8] = biological target: c-20S β5c (Homo sapiens, UniProt P20618+P28074); assay: human c-20S β5c enzyme inhibition; type: biochemical
[9] = biological target: i-20S β5i (Homo sapiens, UniProt P20618+P28062); assay: human i-20S β5i enzyme inhibition; type: biochemical
[10] = biological target: T1, Pf20S β5; assay: biochemical; details: IC50 Pf20S β5, Table 3; mean of at least three independent experiments

Compound: Cc1cc(C(=O)N[C@@H](CC(=O)NC(C)(C)C)C(=O)NCCNC(=O)c2cccc(-n3cccn3)c2)no1 [TDI4258]
EC90 [1]: 60 nM

PAMPA @ pH7.4 [2]: 159 nm/sec
fold enhanced potency relative to WHZ-11 [3]: 2.5 fold
Compound: COc1cccc(C(=O)NCCNC(=O)[C@H](CC(=O)NC(C)(C)C)NS(=O)(=O)c2ccc(C)cc2)c1 [WHZ-12]

Compound: CCN(CC)CCCC(C)Nc1ccnc2cc(Cl)ccc12 (centres unmarked) [chloroquine, reference compound]
EC50 [4]: 4.5 to 27 nM

fold reduction in potency relative to WHZ-04 [3]: 6 fold
Compound: Cc1ccc(S(=O)(=O)N[C@@H](CC(=O)NC(C)(C)C)C(=O)NCCNC(=O)c2ccc(F)cc2)cc1 [WHZ-07]

fold reduction in potency relative to WHZ-04 [3]: 10 fold
Compound: Cc1ccc(S(=O)(=O)N[C@@H](CC(=O)NC(C)(C)C)C(=O)NCCNC(=O)c2ccccc2Cl)cc1 [WHZ-08]

Compound: Cc1ccc(S(=O)(=O)N[C@@H](CC(=O)NC(C)(C)C)C(=O)NCCNC(=O)c2ccccc2F)cc1 [WHZ-05]
PAMPA @ pH7.4 [2]: 105 nm/sec
fold decrease in activity against cultured parasites compared to PKS21221 [5]: 4.7 fold

PAMPA @ pH7.4 [2]: 203 nm/sec
fold enhanced potency relative to WHZ-11 [3]: 4.8 fold
Compound: C#Cc1cccc(C(=O)NCCNC(=O)[C@H](CC(=O)NC(C)(C)C)NS(=O)(=O)c2ccc(C)cc2)c1 [WHZ-13]
EC50 [4]: 4.4 to 16 nM
inhibition of labeling of Pf20S β5 by MV151 [6]: only inhibited the labeling of the Pf20S β5

Compound: Cc1ccc(S(=O)(=O)N[C@@H](CC(=O)NC(C)(C)C)C(=O)NCCNC(=O)c2ccccc2)cc1 [WHZ-04]
PAMPA @ pH7.4 [2]: 137 nm/sec
type of interaction by isobologram analysis [7]: synergistic to additive
∑FIC ([7]; 72-h dual drug assay, three independent experiments): 0.52 ± 0.13

Compound: Cc1ccc(S(=O)(=O)N[C@@H](CC(=O)NC(C)(C)C)C(=O)NCCNC(=O)c2c(O)cccc2F)cc1 [WHZ-20]
IC50 [8]: > 100000 nM
fold of selectivity, β5c over Pf20S β5 ([8]; in parenthesis in Table 3): > 24.7 fold
IC50 [9]: 9970 nM
fold of selectivity, β5i over Pf20S β5 ([9]; in parenthesis in Table 3): 2.5 fold
IC50 [10]: 4060 nM
